From US20220177508A1, “C10-Cyclic Substituted 13-Membered Macrolides and Uses Thereof” (Zikani Therapeutics, Inc., priority 2018, published 2022) come the findings set out here.

Converted amounts (≈) assume the structure as drawn. Some results are limits rather than exact numbers.

What all share (type): cell-based
One experiment concerns A. baumannii MP-15. Description: Broth dilution MIC determination (CLSI), A. baumannii MP-15. Conditions: Acinetobacter baumannii, MP15; strain MP-15, broth dilution; read-out: MIC A. baumanii MP-15. (In general: In broth dilution the organism is exposed to a series of concentrations in liquid medium.)
The test system of another experiment is P. aeruginosa MP-3. The experiment can be described thus: Broth dilution MIC determination (CLSI), P. aeruginosa MP-3. Conditions: Pseudomonas aeruginosa, MP3; strain MP-3, broth dilution.
The next experiment relates to S. aureus MP-12. Description: Broth dilution MIC determination (CLSI), S. aureus MP-12. Conditions: Staphylococcus aureus, MP12; strain MP-12, broth dilution.
For another experiment, the system named is K. pneumoniae MP-546. The experiment can be described thus: Broth dilution MIC determination (CLSI), K. pneumoniae MP-546. Conditions: Klebsiella pneumoniae, MP546; strain MP-546, broth dilution.
A further experiment relates to K. pneumoniae MP-648. Description: Broth dilution MIC determination (CLSI), K. pneumoniae MP-648. Conditions: Klebsiella pneumoniae, MP648; strain MP-648, broth dilution.
Another experiment relates to E. coli MP-4. Description: Broth dilution MIC determination (CLSI), E. coli MP-4. Conditions: Escherichia coli, MP4; strain MP-4, broth dilution; read-out: MIC E. coli MP-4.

Turning to `CCN(C)[C@H]1C[C@@H]([C@@H]2COC(=O)C(C)(C)C(=O)[C@H](C)[C@@H](O[C@@H]3O[C@H](C)C[C@H](N(C)C)[C@H]3O)[C@](C)(OC)C[C@@H](C)CN2C)C1` [Compound 165, (3R,6R,8R,9R,10R)-9-(((2S,3R,4S,6R)-4-(dimethylamino)-3-hydroxy-6-methyltetrahydro-2H-pyran-2-yl)oxy)-3-((1s,3S)-3-(ethyl(methyl)amino)cyclobutyl)-8-methoxy-4,6,8,10,12,12-hexamethyl-1-oxa-4-azacyclotridecane-11,13-dione], the MIC in the experiment with A. baumannii MP-15 is greater than 32 µg/mL; in the experiment on P. aeruginosa MP-3, greater than 32 µg/mL; against S. aureus MP-12, greater than 32 µg/mL; with K. pneumoniae MP-546, 4 to 32 µg/mL (≈ 6.54 to 52.3 µM); in the experiment with K. pneumoniae MP-648, 4 to 32 µg/mL (≈ 6.54 to 52.3 µM); with E. coli MP-4, less than 4 µg/mL.
`CCN(C)CCCC(=O)N1CC([C@@H]2COC(=O)C(C)(C)C(=O)[C@H](C)[C@@H](O[C@@H]3O[C@H](C)C[C@H](N(C)C)[C@H]3O)[C@](C)(OC)C[C@@H](C)CN2C)C1` [Compound 135, (3R,6R,8R,9R,10R)-9-(((2S,3R,4S,6R)-4-(dimethylamino)-3-hydroxy-6-methyltetrahydro-2H-pyran-2-yl)oxy)-3-(1-(4-(ethyl(methyl)amino)butanoyl)azetidin-3-yl)-8-methoxy-4,6,8,10,12,12-hexamethyl-1-oxa-4-azacyclotridecane-11,13-dione]: the MIC was greater than 32 µg/mL in the experiment on A. baumannii MP-15; greater than 32 µg/mL against P. aeruginosa MP-3; greater than 32 µg/mL in the experiment with S. aureus MP-12; greater than 32 µg/mL against K. pneumoniae MP-546; 4 to 32 µg/mL (≈ 5.86 to 46.9 µM) with K. pneumoniae MP-648; 4 to 32 µg/mL (≈ 5.86 to 46.9 µM) in the experiment on E. coli MP-4.
Consider `CO[C@]1(C)C[C@@H](C)CN(C)[C@H](C2CN(CC3CC3)C2)[C@@H](C)OC(=O)C(C)(C)C(=O)[C@H](C)[C@H]1O[C@@H]1O[C@H](C)C[C@H](N(C)C)[C@H]1O` [Compound 146, (2R,3R,6R,8R,9R,10R)-3-(1-(cyclopropylmethyl)azetidin-3-yl)-9-(((2S,3R,4S,6R)-4-(dimethylamino)-3-hydroxy-6-methyltetrahydro-2H-pyran-2-yl)oxy)-8-methoxy-2,4,6,8,10,12,12-heptamethyl-1-oxa-4-azacyclotridecane-11,13-dione], for which the minimal inhibitory concentration (MIC) is greater than 32 µg/mL in the experiment on A. baumannii MP-15; greater than 32 µg/mL against P. aeruginosa MP-3; greater than 32 µg/mL in the experiment with S. aureus MP-12; greater than 32 µg/mL against K. pneumoniae MP-546; greater than 32 µg/mL with K. pneumoniae MP-648; 4 to 32 µg/mL (≈ 6.41 to 51.3 µM) in the experiment with E. coli MP-4.
On to `CO[C@]1(C)C[C@@H](C)CN(C)[C@H](C2CN(Cc3cncnc3)C2)COC(=O)C(C)(C)C(=O)[C@H](C)[C@H]1O[C@@H]1O[C@H](C)C[C@H](N(C)C)[C@H]1O` [Compound 177, (3R,6R,8R,9R,10R)-9-(((2S,3R,4S,6R)-4-(dimethylamino)-3-hydroxy-6-methyltetrahydro-2H-pyran-2-yl)oxy)-8-methoxy-4,6,8,10,12,12-hexamethyl-3-(1-(pyrimidin-5-ylmethyl)azetidin-3-yl)-1-oxa-4-azacyclotridecane-11,13-dione], for which the minimum inhibitory concentration (MIC) was greater than 32 µg/mL with A. baumannii MP-15; greater than 32 µg/mL in the experiment with P. aeruginosa MP-3; 4 to 32 µg/mL (≈ 6.17 to 49.4 µM) with S. aureus MP-12; 4 to 32 µg/mL (≈ 6.17 to 49.4 µM) in the experiment on K. pneumoniae MP-546; greater than 32 µg/mL in the experiment on K. pneumoniae MP-648; 4 to 32 µg/mL (≈ 6.17 to 49.4 µM) in the experiment with E. coli MP-4.
For the molecule `CO[C@]1(C)C[C@@H](C)CN(C)[C@H](C2CN(C(=O)[C@@H]3CCNC3)C2)COC(=O)C(C)(C)C(=O)[C@H](C)[C@H]1O[C@@H]1O[C@H](C)C[C@H](N(C)C)[C@H]1O` [Compound 22, (3R,6R,8R,9R,10R)-9-(((2S,3R,4S,6R)-4-(dimethylamino)-3-hydroxy-6-methyltetrahydro-2H-pyran-2-yl)oxy)-8-methoxy-4,6,8,10,12,12-hexamethyl-3-(1-((R)-pyrrolidine-3-carbonyl)azetidin-3-yl)-1-oxa-4-azacyclotridecane-11,13-dione], the MIC was greater than 32 µg/mL in the experiment on A. baumannii MP-15; greater than 32 µg/mL against P. aeruginosa MP-3; 4 to 32 µg/mL (≈ 6.13 to 49 µM) against S. aureus MP-12; greater than 32 µg/mL with K. pneumoniae MP-546; greater than 32 µg/mL in the experiment with K. pneumoniae MP-648; 4 to 32 µg/mL (≈ 6.13 to 49 µM) in the experiment on E. coli MP-4.
Take `CCCN1C[C@H](C)C[C@@](C)(OC)[C@H](O[C@@H]2O[C@H](C)C[C@H](N(C)C)[C@H]2O)[C@@H](C)C(=O)C(C)(C)C(=O)OC[C@H]1[C@H]1C[C@H](N(C)CC2CC2)C1` [Compound 95, (3R,6R,8R,9R,10R)-3-((1r,3R)-3-((cyclopropylmethyl)(methyl)amino)cyclobutyl)-9-(((2S,3R,4S,6R)-4-(dimethylamino)-3-hydroxy-6-methyltetrahydro-2H-pyran-2-yl)oxy)-8-methoxy-6,8,10,12,12-pentamethyl-4-propyl-1-oxa-4-azacyclotridecane-11,13-dione]: the MIC with A. baumannii MP-15 is greater than 32 µg/mL; against P. aeruginosa MP-3, greater than 32 µg/mL; in the experiment with S. aureus MP-12 it was 4 to 32 µg/mL (≈ 6.01 to 48.1 µM); in the experiment on K. pneumoniae MP-546, less than 4 µg/mL; against K. pneumoniae MP-648, 4 to 32 µg/mL (≈ 6.01 to 48.1 µM); in the experiment on E. coli MP-4, less than 4 µg/mL.
For the molecule `CO[C@]1(C)C[C@@H](C)CN(C)[C@H](C2CN(Cc3ccccn3)C2)COC(=O)C(C)(C)C(=O)[C@H](C)[C@H]1O[C@@H]1O[C@H](C)C[C@H](N(C)C)[C@H]1O` [Compound 115, (3R,6R,8R,9R,10R)-9-(((2S,3R,4S,6R)-4-(dimethylamino)-3-hydroxy-6-methyltetrahydro-2H-pyran-2-yl)oxy)-8-methoxy-4,6,8,10,12,12-hexamethyl-3-(1-(pyridin-2-ylmethyl)azetidin-3-yl)-1-oxa-4-azacyclotridecane-11,13-dione], the MIC with A. baumannii MP-15 is greater than 32 µg/mL; against P. aeruginosa MP-3, greater than 32 µg/mL; in the experiment on S. aureus MP-12, 4 to 32 µg/mL (≈ 6.18 to 49.5 µM); in the experiment on K. pneumoniae MP-546, 4 to 32 µg/mL (≈ 6.18 to 49.5 µM); against K. pneumoniae MP-648 it was 4 to 32 µg/mL (≈ 6.18 to 49.5 µM); in the experiment with E. coli MP-4, less than 4 µg/mL.
With `CO[C@]1(C)C[C@@H](C)CN(C)[C@H](C2CN(Cc3cnn(C)c3)C2)COC(=O)C(C)(C)C(=O)[C@H](C)[C@H]1O[C@@H]1O[C@H](C)C[C@H](N(C)C)[C@H]1O` [Compound 49, (3R,6R,8R,9R,10R)-9-(((2S,3R,4S,6R)-4-(dimethylamino)-3-hydroxy-6-methyltetrahydro-2H-pyran-2-yl)oxy)-8-methoxy-4,6,8,10,12,12-hexamethyl-3-(1-((1-methyl-1H-pyrazol-4-yl)methyl)azetidin-3-yl)-1-oxa-4-azacyclotridecane-11,13-dione], the MIC with A. baumannii MP-15 is greater than 32 µg/mL; against P. aeruginosa MP-3, greater than 32 µg/mL; in the experiment with S. aureus MP-12, 4 to 32 µg/mL (≈ 6.16 to 49.2 µM); against K. pneumoniae MP-546, less than 4 µg/mL; in the experiment on K. pneumoniae MP-648 it was 4 to 32 µg/mL (≈ 6.16 to 49.2 µM); with E. coli MP-4 it was less than 4 µg/mL.
As for `CO[C@]1(C)C[C@@H](C)CN(C)[C@H](C2CN(C(=O)CN3CCCC3)C2)COC(=O)C(C)(C)C(=O)[C@H](C)[C@H]1O[C@@H]1O[C@H](C)C[C@H](N(C)C)[C@H]1O` [Compound 138, (3R,6R,8R,9R,10R)-9-(((2S,3R,4S,6R)-4-(dimethylamino)-3-hydroxy-6-methyltetrahydro-2H-pyran-2-yl)oxy)-8-methoxy-4,6,8,10,12,12-hexamethyl-3-(1-(2-(pyrrolidin-1-yl)acetyl)azetidin-3-yl)-1-oxa-4-azacyclotridecane-11,13-dione], the MIC in the experiment on A. baumannii MP-15 is greater than 32 µg/mL; against P. aeruginosa MP-3 it was greater than 32 µg/mL; in the experiment with S. aureus MP-12, 4 to 32 µg/mL (≈ 6 to 48 µM); against K. pneumoniae MP-546 it was less than 4 µg/mL; against K. pneumoniae MP-648, 4 to 32 µg/mL (≈ 6 to 48 µM); in the experiment on E. coli MP-4, less than 4 µg/mL.
Take `CCCN1C[C@H](C)C[C@@](C)(OC)[C@H](O[C@@H]2O[C@H](C)C[C@H](N(C)C)[C@H]2O)[C@@H](C)C(=O)C(C)(C)C(=O)OC[C@H]1[C@H]1C[C@H](N(C)CC)C1` [Compound 94, (3R,6R,8R,9R,10R)-9-(((2S,3R,4S,6R)-4-(dimethylamino)-3-hydroxy-6-methyltetrahydro-2H-pyran-2-yl)oxy)-3-((1r,3R)-3-(ethyl(methyl)amino)cyclobutyl)-8-methoxy-6,8,10,12,12-pentamethyl-4-propyl-1-oxa-4-azacyclotridecane-11,13-dione]: the MIC in the experiment on A. baumannii MP-15 was greater than 32 µg/mL; in the experiment on P. aeruginosa MP-3, greater than 32 µg/mL; in the experiment on S. aureus MP-12, 4 to 32 µg/mL (≈ 6.25 to 50 µM); against K. pneumoniae MP-546, less than 4 µg/mL; in the experiment with K. pneumoniae MP-648, 4 to 32 µg/mL (≈ 6.25 to 50 µM); in the experiment with E. coli MP-4, less than 4 µg/mL.
Turning to `CO[C@]1(C)C[C@@H](C)CN(C)[C@H](C2CN(C(=O)[C@H]3CCN(CC4CC4)C3)C2)COC(=O)C(C)(C)C(=O)[C@H](C)[C@H]1O[C@@H]1O[C@H](C)C[C@H](N(C)C)[C@H]1O` [Compound 126, (3R,6R,8R,9R,10R)-3-(1-((S)-1-(cyclopropylmethyl)pyrrolidine-3-carbonyl)azetidin-3-yl)-9-(((2S,3R,4S,6R)-4-(dimethylamino)-3-hydroxy-6-methyltetrahydro-2H-pyran-2-yl)oxy)-8-methoxy-4,6,8,10,12,12-hexamethyl-1-oxa-4-azacyclotridecane-11,13-dione], the MIC is greater than 32 µg/mL in the experiment on A. baumannii MP-15; greater than 32 µg/mL in the experiment on P. aeruginosa MP-3; 4 to 32 µg/mL (≈ 5.66 to 45.3 µM) in the experiment on S. aureus MP-12; 4 to 32 µg/mL (≈ 5.66 to 45.3 µM) in the experiment with K. pneumoniae MP-546; 4 to 32 µg/mL (≈ 5.66 to 45.3 µM) against K. pneumoniae MP-648; less than 4 µg/mL with E. coli MP-4.
With `CCCN1CCC([C@]2(C)COC(=O)C(C)(C)C(=O)[C@H](C)[C@@H](O[C@@H]3O[C@H](C)C[C@H](N(C)C)[C@H]3O)[C@](C)(OC)C[C@@H](C)CN2C)CC1` [Compound 143, (3R,6R,8R,9R,10R)-9-(((2S,3R,4S,6R)-4-(dimethylamino)-3-hydroxy-6-methyltetrahydro-2H-pyran-2-yl)oxy)-8-methoxy-3,4,6,8,10,12,12-heptamethyl-3-(1-propylpiperidin-4-yl)-1-oxa-4-azacyclotridecane-11,13-dione], the MIC is greater than 32 µg/mL with A. baumannii MP-15; greater than 32 µg/mL against P. aeruginosa MP-3; greater than 32 µg/mL with S. aureus MP-12; less than 4 µg/mL in the experiment on K. pneumoniae MP-546; less than 4 µg/mL against K. pneumoniae MP-648; less than 4 µg/mL in the experiment on E. coli MP-4.

Usually MIC stands for the lowest concentration found to suppress growth.
